pIC50: −log10 of the molar value.
Molecular target: T1, human HSL (Homo sapiens, UniProt Q05469)
T1 construct: overlapping PCR to generate a full length human HSL ORF with a 3′-His6 tag; His6 (C); made in house; host or cells: High 5 insect cells (baculovirus, pFast-BAC)
T1 sequence (Q05469 1-1076): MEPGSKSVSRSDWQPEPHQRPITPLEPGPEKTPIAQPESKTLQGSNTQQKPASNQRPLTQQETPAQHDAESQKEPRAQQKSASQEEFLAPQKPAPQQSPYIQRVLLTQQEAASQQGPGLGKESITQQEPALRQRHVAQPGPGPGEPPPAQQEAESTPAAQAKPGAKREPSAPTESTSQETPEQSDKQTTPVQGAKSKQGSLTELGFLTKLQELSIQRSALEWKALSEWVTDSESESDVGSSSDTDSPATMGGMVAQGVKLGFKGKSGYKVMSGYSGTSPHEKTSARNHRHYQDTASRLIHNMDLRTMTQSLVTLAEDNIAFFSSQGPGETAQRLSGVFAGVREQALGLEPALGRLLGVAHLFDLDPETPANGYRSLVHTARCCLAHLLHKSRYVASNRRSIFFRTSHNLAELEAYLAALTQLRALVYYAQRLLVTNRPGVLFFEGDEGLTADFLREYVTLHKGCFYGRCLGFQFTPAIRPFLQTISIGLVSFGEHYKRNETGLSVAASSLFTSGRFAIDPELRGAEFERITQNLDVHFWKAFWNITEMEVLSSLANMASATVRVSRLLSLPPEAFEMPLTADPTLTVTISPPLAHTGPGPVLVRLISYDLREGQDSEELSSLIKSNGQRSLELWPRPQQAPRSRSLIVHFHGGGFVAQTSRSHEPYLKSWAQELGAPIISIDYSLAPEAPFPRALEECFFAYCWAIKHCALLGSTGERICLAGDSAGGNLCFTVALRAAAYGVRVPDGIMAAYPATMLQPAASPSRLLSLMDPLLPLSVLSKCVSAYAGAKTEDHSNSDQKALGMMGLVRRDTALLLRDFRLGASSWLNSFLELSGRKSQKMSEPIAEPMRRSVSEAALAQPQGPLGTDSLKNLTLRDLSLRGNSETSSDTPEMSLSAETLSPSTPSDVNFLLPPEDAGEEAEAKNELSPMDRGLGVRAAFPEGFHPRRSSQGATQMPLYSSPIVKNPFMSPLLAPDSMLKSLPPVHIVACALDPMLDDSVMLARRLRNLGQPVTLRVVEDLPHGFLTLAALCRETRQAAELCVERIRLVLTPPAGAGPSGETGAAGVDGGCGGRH
Test: Human hormone-sensitive lipase (HSL) enzyme inhibition assay (colorimetric, DMPT substrate)
Type: biochemical
Conditions: human full length HSL-His6; 2,3-dimercapto-1-propanol tributyrate substrate; 37° C., 20 minutes; read-out: HSL hum IC50
Summary of the method: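 Full-length human HSL with C-terminal His6, expressed in baculovirus/High 5 cells and Ni-NTA purified, was added from a 15 µg/ml solution to 1.5 mM DMPT in 100 mM MOPS pH 7.2, 0.2 mg/ml fatty acid-free BSA. After 20 min at 37 °C, DTNB with SDS/Triton X-100 was added, 15 min RT, and A405 read.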

| Structure (SMILES) | pIC50 |
| --- | --- |
| O=C(Nc1ccc(OC(F)(F)F)cc1)[C@H]1CCN(S(=O)(=O)c2ccccc2Cl)[C@H](CO)C1 (racemic) [Example 36, (2S,4S)-1-(2-Chloro-benzenesulfonyl)-2-hydroxymethyl-piperidine-4-carboxylic acid (4-trifluoromethoxy-phenyl)-amide and (2R,4R)-1-(2-Chloro-benzenesulfonyl)-2-hydroxymethyl-piperidine-4-carboxylic acid (4-trifluoromethoxy-phenyl)-amide] | 7.30 |
| Cc1ccc(S(=O)(=O)N2CCC(C(=O)Nc3ccc(OC(C)C(F)(F)F)cc3)CC2)cc1 (racemic) [Example 25, (rac)-1-(toluene-4-sulfonyl)-piperidine-4-carboxylic acid [4-(2,2,2-trifluoro-1-methyl-ethoxy)-phenyl]-amide] | 7.05 |
| Cc1ccc(S(=O)(=O)N2CCC(C(=O)Nc3ccc(OC(C)(C)C(F)(F)F)cc3)CC2)cc1 [Example 33, 1-(Toluene-4-sulfonyl)-piperidine-4-carboxylic acid [4-(2,2,2-trifluoro-1,1-dimethyl-ethoxy)-phenyl]-amide] | 6.89 |
| COCC[C@@H](Oc1ccc(NC(=O)C2CCN(S(=O)(=O)c3ccc(C)cc3)CC2)cc1)C(F)(F)F [Example 59, 1-(Toluene-4-sulfonyl)-piperidine-4-carboxylic acid [4-((R)-3-methoxy-1-trifluoromethyl-propoxy)-phenyl]-amide] | 6.54 |
| CC1(C(=O)Nc2ccc(OC(C)(C)C(F)(F)F)cc2)CCN(S(=O)(=O)c2ccccc2)CC1 (racemic) [Example 50, (rac)-1-Benzenesulfonyl-4-methyl-piperidine-4-carboxylic acid [4-(2,2,2-trifluoro-1,1-dimethyl-ethoxy)-phenyl]-amide] | 6.09 |
| Cc1ccc(S(=O)(=O)N2CCC(C(=O)N(C)c3ccc(OC(C)C(F)(F)F)cc3)CC2)cc1 (racemic) [Example 5, (rac)-1-(Toluene-4-sulfonyl)-piperidine-4-carboxylic acid methyl-[4-(2,2,2-trifluoro-1-methyl-ethoxy)-phenyl]-amide] | 6.92 |
| Cc1ccc(S(=O)(=O)N2CCC(C(=O)Nc3ccc(OCC4CC4)cc3)CC2)cc1 [Example 20, 1-(Toluene-4-sulfonyl)-piperidine-4-carboxylic acid (4-cyclopropylmethoxy-phenyl)-amide] | 6.77 |
| CC(C)(C)CCC(=O)N1CCC(C(=O)Nc2ccc(OC(F)(F)F)cc2)CC1 [Example 56, 1-(4,4-Dimethyl-pentanoyl)-piperidine-4-carboxylic acid (4-trifluoromethoxy-phenyl)-amide] | 6.59 |
| O=C(Nc1ccc(OC(F)(F)F)cc1)C1(CO)CCN(S(=O)(=O)c2ccccc2)CC1 [Example 26, 1-Benzenesulfonyl-4-hydroxymethyl-piperidine-4-carboxylic acid (4-trifluoromethoxy-phenyl)-amide] | 6.66 |

Second part, the compound after the results:

| pIC50 | Structure (SMILES) |
| --- | --- |
| 7.15 | CC(C)Oc1ccc(NC(=O)C2CCN(S(=O)(=O)c3ccccc3)CC2)cc1 [Example 47, 1-Benzenesulfonyl-piperidine-4-carboxylic acid (4-isopropoxy-phenyl)-amide] |
| 7.70 | O=C(Nc1ccc(OC(F)(F)F)cc1)C1CCN(S(=O)(=O)c2ccccc2Cl)CC1 [Example 38, 1-(2-Chloro-benzenesulfonyl)-piperidine-4-carboxylic acid (4-trifluoromethoxy-phenyl)-amide] |
| 4.92 | COc1ccc(NC(=O)C2CCN(S(=O)(=O)c3ccccc3)CC2)nn1 [Example 3, 1-Benzenesulfonyl-piperidine-4-carboxylic acid (6-methoxy-pyridazin-3-yl)-amide] |
| 6.15 | Cc1ccc(S(=O)(=O)N2CCC(C(=O)Nc3ccc(CCO)cc3)CC2)cc1 [Example 22, 1-(Toluene-4-sulfonyl)-piperidine-4-carboxylic acid [4-(2-hydroxy-ethyl)-phenyl]-amide] |

Source: patent US8258158B2 (Hoffmann-La Roche Inc., priority 2009, dated 2012)
